Where two headings read alike, the source gives them in different places.
Biological target: rat MCH-1 (Rattus norvegicus, UniProt P97639)
Assay: Radioligand binding assay at cloned rat MCH1 receptor ([3H] Compound A)
Design: host or cells: Peak rapid 293 (Peakr293) cells, transient calcium phosphate transfection, membranes
Details: cloned rat MCH1 receptor, 0.08 nM [3H] Compound A, read-out: Ki (nM) rMCH1

Sequence of rat MCH-1 (P97639 whole entry): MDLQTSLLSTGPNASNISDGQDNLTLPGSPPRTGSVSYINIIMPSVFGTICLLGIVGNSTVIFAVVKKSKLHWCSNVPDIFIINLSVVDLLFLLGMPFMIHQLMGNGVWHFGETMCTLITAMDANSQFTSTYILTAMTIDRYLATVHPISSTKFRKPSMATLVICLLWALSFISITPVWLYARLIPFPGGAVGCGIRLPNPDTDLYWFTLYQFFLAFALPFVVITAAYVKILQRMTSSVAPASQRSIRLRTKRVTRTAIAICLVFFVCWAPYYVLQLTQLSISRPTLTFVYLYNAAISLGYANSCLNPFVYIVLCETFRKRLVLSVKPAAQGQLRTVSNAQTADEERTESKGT

SMILES	Ki (Peakr293 cell membranes) [nM]	Ki (membranes from Peakr293 cells) [nM]
CC(C)C(=O)Nc1cccc(C2CCN(CCc3cn(C)c4ccccc34)CC2)c1 [Example 410]	263	
Cc1ccc2[nH]cc(CCN3CCC(c4cccc(NC(=O)C(C)C)c4)CC3)c2c1 [Example 411]	82.3	
CC(C)C(=O)Nc1cccc(C2CCN(CCc3c[nH]c4ccc(OC(F)(F)F)cc34)CC2)c1 [Example 412]	27	
CC(C)C(=O)Nc1cccc(C2CCN(CCCc3c[nH]c4c3ccc3ccccc34)CC2)c1 [Example 413]	76.8	
CC(C)C(=O)Nc1cccc(C2CCN(CCCc3cn(C)c4ccccc34)CC2)c1 [Example 414]	2.9	
Cc1ccc2[nH]cc(CCCN3CCC(c4cccc(NC(=O)C(C)C)c4)CC3)c2c1 [Example 415]	8.1	
CC(C)C(=O)Nc1cccc(C2CCN(CCCc3c[nH]c4ccc(OC(F)(F)F)cc34)CC2)c1 [Example 416]	12.6	
Cc1cccc2c(CCCN3CCC(c4cccc(NC(=O)C(C)C)c4)CC3)c[nH]c12 [Example 417]	20.5	
COc1cccc2c(CCCN3CCC(c4cccc(NC(=O)C(C)C)c4)CC3)c[nH]c12 [Example 418]	51.6	
COc1cccc2c(CCN3CCC(c4cccc(NC(=O)C(C)C)c4)CC3)c[nH]c12 [Example 419]	83.9	
Cc1ccc2[nH]c(-c3ccccc3)c(CCCCN3CCC(c4cccc(NC(=O)C(C)C)c4)CC3)c2c1 [Example 421]	1.8	
Cc1ccc(-n2cc(CN3CCC(c4ccc(NC(=O)C(C)C)cc4)CC3)c3ccccc32)cc1 [Example 422]	173	
CCCC(=O)Nc1ccc(C2CCN(Cc3cn(-c4ccc(C)cc4)c4ccccc34)CC2)cc1 [Example 423]	405	
CC(C)C(=O)Nc1cccc(C2CCN(Cc3c(-c4ccccc4N)[nH]c4ccccc34)CC2)c1 [Example 424]	114	
CCOC(=O)c1[nH]c2ccccc2c1CN1CCC(c2cccc(NC(=O)C(C)C)c2)CC1 [Example 425, ETHYL 3-({4-[3-(ISOBUTYRYLAMINO)PHENYL]-1-PIPERIDINYL}METHYL)-1H-INDOLE-2-CARBOXYLATE]	599	
COc1ccc2[nH]c(C)c(CN3CCC(c4cccc(NC(=O)C(C)C)c4)CC3)c2c1 [Example 427]	248	

SMILES	Ki (Peakr293 cell membranes) [nM]	Ki (membranes from Peakr293 cells) [nM]
CC(C)C(=O)Nc1cccc(C2CCN(Cc3c[nH]c4ccc([N+](=O)[O-])cc34)CC2)c1 [Example 429]	121	
Cc1[nH]c2ccccc2c1CN1CCC(c2cccc(NC(=O)C(C)C)c2)CC1 [Example 430]	647	
CC(C)C(=O)Nc1cccc(C2CCN(Cc3c[nH]c4cccc(Br)c34)CC2)c1 [Example 431]	968	
CC(C)C(=O)Nc1cccc(C2CCN(Cc3c(-c4ccccc4)n(-c4ccccc4)c4ccccc34)CC2)c1 [Example 433]	30.4	
Cc1[nH]c2ccc(Cl)cc2c1CN1CCC(c2cccc(NC(=O)C(C)C)c2)CC1 [Example 435]	215	
CC(C)C(=O)Nc1cccc(C2CCN(Cc3c[nH]c4ccc(C#N)cc34)CC2)c1 [Example 436]	434	
COc1cc2[nH]cc(CN3CCC(c4cccc(NC(=O)C(C)C)c4)CC3)c2cc1OC [Example 440]	107	
Cc1ccc2[nH]cc(CN3CCC(c4cccc(NC(=O)C(C)C)c4)CC3)c2c1 [Example 445]	486	
COc1ccc2[nH]cc(CN3CCC(c4cccc(NC(=O)C(C)C)c4)CC3)c2c1 [Example 449]	623	623
CCOC(=O)c1[nH]c2ccc(OC)cc2c1CN1CCC(c2cccc(NC(=O)C(C)C)c2)CC1 [Example 453, ETHYL 3-({4-[3-(ISOBUTYRYLAMINO)PHENYL]-1-PIPERIDINYL}METHYL)-5-METHOXY-1H-INDOLE-2-CARBOXYLATE]	195	
CC(C)C(=O)Nc1cccc(C2CCN(Cc3c[nH]c4ccc(F)cc34)CC2)c1 [Example 454]	772	
CCC(=O)Nc1cccc(C2CCN(Cc3c[nH]c4cc(F)ccc34)CC2)c1 [Example 468]	912	
CC(C)C(=O)Nc1cccc(C2CCN(Cc3c[nH]c4cc(F)ccc34)CC2)c1 [Example 470]	654	
Cc1ccc2c(CN3CCC(c4cccc(NC(=O)C(C)C)c4)CC3)c[nH]c2c1 [Example 495]	95.1	
COc1ccc2c(CN3CCC(c4cccc(NC(=O)C(C)C)c4)CC3)c[nH]c2c1 [Example 497]	97.7	

The remaining lines, values ahead:

Ki (Peakr293 cell membranes) [nM]	Ki (membranes from Peakr293 cells) [nM]	SMILES
556		CC(C)C(=O)Nc1cccc(C2CCN(Cc3cn(C)c4ccccc34)CC2)c1 [Example 426]
132		CC(C)C(=O)Nc1cccc(C2CCN(Cc3c(-c4ccccc4)n(C)c4ccccc34)CC2)c1 [Example 428]
198		CC(C)C(=O)Nc1cccc(C2CCN(Cc3c(-c4ccc(F)cc4)[nH]c4ccccc34)CC2)c1 [Example 432]
214		CCn1c(-c2ccc(Cl)cc2)c(CN2CCC(c3cccc(NC(=O)C(C)C)c3)CC2)c2ccccc21 [Example 434]
552		Cc1ccc2[nH]c(-c3ccccc3)c(CN3CCC(c4cccc(NC(=O)C(C)C)c4)CC3)c2c1 [Example 437]
1.3		CC(C)C(=O)Nc1cccc(C2CCN(Cc3cn(-c4ccc([N+](=O)[O-])cc4)c4ccccc34)CC2)c1 [Example 438]
8.5		CC(C)C(=O)Nc1cccc(C2CCN(Cc3cn(-c4ccccc4F)c4ccccc34)CC2)c1 [Example 439]
10.1		Cc1cccc(-n2cc(CN3CCC(c4cccc(NC(=O)C(C)C)c4)CC3)c3ccccc32)c1 [Example 441]
7.8		CC(C)C(=O)Nc1cccc(C2CCN(Cc3cn(-c4cccc(C(F)(F)F)c4)c4ccccc34)CC2)c1 [Example 442]
23.4		COc1ccc(-n2cc(CN3CCC(c4cccc(NC(=O)C(C)C)c4)CC3)c3ccccc32)cc1 [Example 443]
545		COc1ccc2[nH]c(-c3ccccc3)c(CN3CCC(c4cccc(NC(=O)C(C)C)c4)CC3)c2c1 [Example 444]
17.9		CC(C)C(=O)Nc1cccc(C2CCN(Cc3cn(-c4ccccc4[N+](=O)[O-])c4ccccc34)CC2)c1 [Example 446]
9.8		COc1ccccc1-n1cc(CN2CCC(c3cccc(NC(=O)C(C)C)c3)CC2)c2ccccc21 [Example 447]
61	61	CC(C)C(=O)Nc1cccc(C2CCN(Cc3cn(-c4ccccc4C(F)(F)F)c4ccccc34)CC2)c1 [Example 448]
7.1		CC(C)C(=O)Nc1cccc(C2CCN(Cc3cn(-c4ccc(F)cc4)c4ccccc34)CC2)c1 [Example 450]
18.7		COc1cccc(-n2cc(CN3CCC(c4cccc(NC(=O)C(C)C)c4)CC3)c3ccccc32)c1 [Example 451]
12.7		Cc1ccccc1-n1cc(CN2CCC(c3cccc(NC(=O)C(C)C)c3)CC2)c2ccccc21 [Example 452]
10.6		CCC(=O)Nc1cccc(C2CCN(Cc3cn(-c4ccc(Cl)cc4)c4ccccc34)CC2)c1 [Example 455]
28		CCC(=O)Nc1cccc(C2CCN(Cc3cn(-c4cccc(Cl)c4)c4ccccc34)CC2)c1 [Example 456]
27.4		O=C(Nc1cccc(C2CCN(Cc3cn(-c4ccccc4Cl)c4ccccc34)CC2)c1)C1CC1 [Example 457]
15.3		CC(C)C(=O)Nc1cccc(C2CCN(Cc3cn(-c4cccc(Cl)c4)c4ccccc34)CC2)c1 [Example 458]

Ki (Peakr293 cell membranes) [nM]	Ki (membranes from Peakr293 cells) [nM]	SMILES
10.4		CC(C)C(=O)Nc1cccc(C2CCN(Cc3cn(-c4ccc(Cl)cc4)c4ccccc34)CC2)c1 [Example 459]
9.1		CC(C)C(=O)Nc1cccc(C2CCN(Cc3cn(-c4ccccc4Cl)c4ccccc34)CC2)c1 [Example 460]
35.6		CCC(=O)Nc1cccc(C2CCN(Cc3cn(-c4ccccc4Cl)c4ccccc34)CC2)c1 [Example 461]
12.4		O=C(Nc1cccc(C2CCN(Cc3cn(-c4ccc(Cl)cc4)c4ccccc34)CC2)c1)C1CC1 [Example 462]
17.2		O=C(Nc1cccc(C2CCN(Cc3cn(-c4cccc(Cl)c4)c4ccccc34)CC2)c1)C1CC1 [Example 463]
84.1		CCC(=O)Nc1cccc(C2CCN(Cc3cn(-c4ccccc4)c4ccccc34)CC2)c1 [Example 464]
10.7		O=C(Nc1cccc(C2CCN(Cc3cn(-c4ccccc4)c4ccccc34)CC2)c1)C1CC1 [Example 465]
479		O=C(Nc1cccc(C2CCN(Cc3c[nH]c4cc(F)ccc34)CC2)c1)C1CC1 [Example 469]
4.3		CC(C)C(=O)Nc1cccc(C2CCN(Cc3cn(-c4ccc(F)cc4)c4cc(Cl)ccc34)CC2)c1 [Example 471]
12.2		CCC(=O)Nc1cccc(C2CCN(Cc3cn(-c4ccccc4F)c4cc(Cl)ccc34)CC2)c1 [Example 472]
11.3		O=C(Nc1cccc(C2CCN(Cc3cn(-c4ccccc4F)c4cc(Cl)ccc34)CC2)c1)C1CC1 [Example 473]
13.3		CC(C)C(=O)Nc1cccc(C2CCN(Cc3cn(-c4ccccc4F)c4cc(Cl)ccc34)CC2)c1 [Example 474]
12.4		CCC(=O)Nc1cccc(C2CCN(Cc3cn(-c4ccc(Cl)cc4)c4cc(Cl)ccc34)CC2)c1 [Example 475]
12.7		O=C(Nc1cccc(C2CCN(Cc3cn(-c4ccc(Cl)cc4)c4cc(Cl)ccc34)CC2)c1)C1CC1 [Example 476]
14.9		CC(C)C(=O)Nc1cccc(C2CCN(Cc3cn(-c4ccc(Cl)cc4)c4cc(Cl)ccc34)CC2)c1 [Example 477]
11.7		CCC(=O)Nc1cccc(C2CCN(Cc3cn(-c4cccc(Cl)c4)c4cc(Cl)ccc34)CC2)c1 [Example 478]
8.1		O=C(Nc1cccc(C2CCN(Cc3cn(-c4cccc(Cl)c4)c4cc(Cl)ccc34)CC2)c1)C1CC1 [Example 479]
9		CC(C)C(=O)Nc1cccc(C2CCN(Cc3cn(-c4cccc(Cl)c4)c4cc(Cl)ccc34)CC2)c1 [Example 480]
664		O=C(Nc1cccc(C2CCN(Cc3c[nH]c4ccc(F)cc34)CC2)c1)C1CC1 [Example 481]
288		CC(C)C(=O)Nc1cccc(C2CCN(Cc3c[nH]c4cc(OCc5ccccc5)ccc34)CC2)c1 [Example 496]

— US6727264B1 (Synaptic Pharmaceutical Corporation, priority 2001, dated 2004)
